Test results as given in the kinase profiling compilation of Christmann-Franck et al. (2016).

What was measured:
Assay in all cases: KINOMEscan competition binding
Details in all cases: compound 1.0 µM
ACVRL1 (human) = ACVRL1 (human) (UniProt P37023)
PAK3 (human) = PAK3 (human) (UniProt O75914)
ANKK1 (human) = ANKK1 (human) (UniProt Q8NFD2)
DYRK2 (human) = DYRK2 (human) (UniProt Q92630)
[1] = tested on: FLT3 (human), P36888 [N841I]
HIPK2 (human) = HIPK2 (human) (UniProt Q9H2X6)
MAP3K1 (human) = MAP3K1 (human) (UniProt Q13233)
RPS6KA4 KD1 (human) = RPS6KA4 KD1 (human) (UniProt O75676)
CSNK1G1 (human) = CSNK1G1 (human) (UniProt Q9HCP0)
Sequence of CSNK1G1 (human) (Q9HCP0 whole entry, looked up): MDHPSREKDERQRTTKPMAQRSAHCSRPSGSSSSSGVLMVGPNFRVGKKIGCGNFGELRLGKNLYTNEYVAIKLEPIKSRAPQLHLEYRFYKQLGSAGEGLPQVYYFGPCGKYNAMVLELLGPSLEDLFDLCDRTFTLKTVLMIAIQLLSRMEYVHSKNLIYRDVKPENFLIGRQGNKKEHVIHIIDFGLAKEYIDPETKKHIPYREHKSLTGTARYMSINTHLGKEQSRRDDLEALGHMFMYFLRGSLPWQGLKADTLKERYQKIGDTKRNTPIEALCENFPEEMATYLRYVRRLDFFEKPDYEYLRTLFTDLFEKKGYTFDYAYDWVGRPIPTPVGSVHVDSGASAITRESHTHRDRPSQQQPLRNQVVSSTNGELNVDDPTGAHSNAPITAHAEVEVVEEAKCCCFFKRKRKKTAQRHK

PIP5K1C (human) = PIP5K1C (human) (UniProt O60331)
Sequence of PIP5K1C (human) (O60331 whole entry, looked up): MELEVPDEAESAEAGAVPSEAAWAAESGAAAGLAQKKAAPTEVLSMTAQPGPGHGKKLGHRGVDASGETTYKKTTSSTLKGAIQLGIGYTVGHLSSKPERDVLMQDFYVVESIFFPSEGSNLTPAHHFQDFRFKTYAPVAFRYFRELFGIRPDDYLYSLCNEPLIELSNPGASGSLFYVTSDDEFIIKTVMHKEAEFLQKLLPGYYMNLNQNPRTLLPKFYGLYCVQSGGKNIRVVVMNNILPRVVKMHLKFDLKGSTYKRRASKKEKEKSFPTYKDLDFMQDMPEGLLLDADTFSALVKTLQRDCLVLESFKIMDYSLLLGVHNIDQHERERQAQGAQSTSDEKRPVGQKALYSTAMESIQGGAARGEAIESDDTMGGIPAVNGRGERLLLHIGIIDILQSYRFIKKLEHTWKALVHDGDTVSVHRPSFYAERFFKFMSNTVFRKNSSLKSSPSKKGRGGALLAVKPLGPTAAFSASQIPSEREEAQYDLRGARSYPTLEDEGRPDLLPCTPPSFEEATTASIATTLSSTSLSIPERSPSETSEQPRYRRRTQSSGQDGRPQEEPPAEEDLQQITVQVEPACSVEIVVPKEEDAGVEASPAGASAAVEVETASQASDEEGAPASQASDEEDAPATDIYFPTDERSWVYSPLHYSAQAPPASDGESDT

IKBKE (human) = IKBKE (human) (UniProt Q14164)
MAPK14 (human) = MAPK14 (human) (UniProt Q16539)
PRKD1 (human) = PRKD1 (human) (UniProt Q15139)
RPS6KA3 KD1 (human) = RPS6KA3 KD1 (human) (UniProt P51812)
LATS2 (human) = LATS2 (human) (UniProt Q9NRM7)
LIMK2 (human) = LIMK2 (human) (UniProt P53671)
TEK (human) = TEK (human) (UniProt Q02763)
MAPK10 (human) = MAPK10 (human) (UniProt P53779)
GRK4 (human) = GRK4 (human) (UniProt P32298)
MAP3K12 (human) = MAP3K12 (human) (UniProt Q12852)
Sequence of MAP3K12 (human) (Q12852 whole entry, looked up): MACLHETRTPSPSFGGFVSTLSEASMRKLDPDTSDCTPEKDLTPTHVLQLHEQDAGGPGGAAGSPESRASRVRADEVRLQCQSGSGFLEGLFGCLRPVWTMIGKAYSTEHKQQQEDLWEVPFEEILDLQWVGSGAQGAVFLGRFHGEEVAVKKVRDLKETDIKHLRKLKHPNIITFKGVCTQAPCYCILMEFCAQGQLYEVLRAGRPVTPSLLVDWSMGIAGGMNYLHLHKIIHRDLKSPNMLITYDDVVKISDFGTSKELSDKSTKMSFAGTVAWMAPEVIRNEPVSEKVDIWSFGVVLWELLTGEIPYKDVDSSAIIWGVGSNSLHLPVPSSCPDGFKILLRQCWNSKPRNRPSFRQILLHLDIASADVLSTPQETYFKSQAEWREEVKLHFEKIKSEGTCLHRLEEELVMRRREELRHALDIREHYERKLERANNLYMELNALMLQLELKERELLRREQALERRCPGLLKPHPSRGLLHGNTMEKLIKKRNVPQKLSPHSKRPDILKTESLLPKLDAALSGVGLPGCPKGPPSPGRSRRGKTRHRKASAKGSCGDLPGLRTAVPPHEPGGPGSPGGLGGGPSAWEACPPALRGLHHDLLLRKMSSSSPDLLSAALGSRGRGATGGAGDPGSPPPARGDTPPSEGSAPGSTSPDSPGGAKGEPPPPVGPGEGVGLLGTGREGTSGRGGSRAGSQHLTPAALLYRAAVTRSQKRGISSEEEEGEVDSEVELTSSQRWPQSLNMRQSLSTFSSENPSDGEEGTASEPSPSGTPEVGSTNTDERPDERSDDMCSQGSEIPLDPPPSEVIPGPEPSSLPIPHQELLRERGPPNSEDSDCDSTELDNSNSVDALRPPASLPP

[2] = tested on: PIK3CA (human), P42336 [I800L]
Sequence of PIK3CA (human), P42336 [I800L] (P42336 whole entry I800L, looked up): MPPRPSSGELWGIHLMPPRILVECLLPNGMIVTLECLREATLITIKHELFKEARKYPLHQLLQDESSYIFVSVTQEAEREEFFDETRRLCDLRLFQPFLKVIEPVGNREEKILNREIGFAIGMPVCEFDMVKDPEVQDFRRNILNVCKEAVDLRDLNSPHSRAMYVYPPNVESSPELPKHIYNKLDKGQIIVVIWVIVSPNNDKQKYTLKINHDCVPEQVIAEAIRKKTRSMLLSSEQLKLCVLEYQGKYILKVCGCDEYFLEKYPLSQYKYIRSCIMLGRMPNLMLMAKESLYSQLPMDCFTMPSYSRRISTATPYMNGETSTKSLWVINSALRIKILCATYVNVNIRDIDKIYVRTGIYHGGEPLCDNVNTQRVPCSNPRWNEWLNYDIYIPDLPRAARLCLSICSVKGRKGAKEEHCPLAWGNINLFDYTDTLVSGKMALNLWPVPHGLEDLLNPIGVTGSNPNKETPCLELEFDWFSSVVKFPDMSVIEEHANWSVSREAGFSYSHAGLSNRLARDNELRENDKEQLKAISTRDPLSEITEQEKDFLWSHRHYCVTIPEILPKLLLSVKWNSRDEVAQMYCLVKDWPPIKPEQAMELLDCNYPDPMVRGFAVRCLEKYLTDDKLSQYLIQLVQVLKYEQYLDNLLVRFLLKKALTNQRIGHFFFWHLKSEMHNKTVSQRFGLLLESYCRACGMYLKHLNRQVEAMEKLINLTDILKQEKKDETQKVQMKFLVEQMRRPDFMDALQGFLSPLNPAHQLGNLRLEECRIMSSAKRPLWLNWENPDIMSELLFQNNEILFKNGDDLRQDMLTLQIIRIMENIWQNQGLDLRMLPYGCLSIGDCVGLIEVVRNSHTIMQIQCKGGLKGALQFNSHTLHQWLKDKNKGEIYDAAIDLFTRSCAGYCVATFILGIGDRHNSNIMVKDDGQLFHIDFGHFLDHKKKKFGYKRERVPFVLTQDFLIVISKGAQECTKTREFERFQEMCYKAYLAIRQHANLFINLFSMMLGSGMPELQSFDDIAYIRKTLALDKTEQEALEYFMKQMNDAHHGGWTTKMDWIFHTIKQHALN

MKNK1 (human) = MKNK1 (human) (UniProt Q9BUB5)
LYN (human) = LYN (human) (UniProt P07948)
CSF1R (human) = CSF1R (human) (UniProt P07333)
NEK3 (human) = NEK3 (human) (UniProt P51956)
SRPK1 (human) = SRPK1 (human) (UniProt Q96SB4)
CAMKK1 (human) = CAMKK1 (human) (UniProt Q8N5S9)
MAPKAPK2 (human) = MAPKAPK2 (human) (UniProt P49137)
CAMK1D (human) = CAMK1D (human) (UniProt Q8IU85)
PTK6 (human) = PTK6 (human) (UniProt Q13882)
[3] = tested on: PIK3CA (human), P42336 [H1047Y]
Sequence of PIK3CA (human), P42336 [H1047Y] (P42336 whole entry H1047Y, looked up): as the sequence (P42336 whole entry I800L, looked up) above, with L800I, H1047Y counted along it

EPHB6 (human) = EPHB6 (human) (UniProt O15197)
[4] = tested on: EGFR (human), P00533 [L861Q]
MAP2K7 (human) = MAP2K7 (human) (UniProt O14733)
[5] = tested on: EIF2AK4 KD2 (human), Q9P2K8 [S808G]
TTK (human) = TTK (human) (UniProt P33981)
MARK4 (human) = MARK4 (human) (UniProt Q96L34)
BMP2K (human) = BMP2K (human) (UniProt Q9NSY1)
STK24 (human) = STK24 (human) (UniProt Q9Y6E0)
PAK2 (human) = PAK2 (human) (UniProt Q13177)
YSK4 (human) = YSK4 (human) (UniProt Q56UN5)
[6] = tested on: PIK3CA (human), P42336 [E545A]
Sequence of PIK3CA (human), P42336 [E545A] (P42336 whole entry E545A, looked up): as the sequence (P42336 whole entry I800L, looked up) above, with E545A, L800I counted along it

PRKD2 (human) = PRKD2 (human) (UniProt Q9BZL6)

Sequence of ANKK1 (human) (Q8NFD2 whole entry, looked up): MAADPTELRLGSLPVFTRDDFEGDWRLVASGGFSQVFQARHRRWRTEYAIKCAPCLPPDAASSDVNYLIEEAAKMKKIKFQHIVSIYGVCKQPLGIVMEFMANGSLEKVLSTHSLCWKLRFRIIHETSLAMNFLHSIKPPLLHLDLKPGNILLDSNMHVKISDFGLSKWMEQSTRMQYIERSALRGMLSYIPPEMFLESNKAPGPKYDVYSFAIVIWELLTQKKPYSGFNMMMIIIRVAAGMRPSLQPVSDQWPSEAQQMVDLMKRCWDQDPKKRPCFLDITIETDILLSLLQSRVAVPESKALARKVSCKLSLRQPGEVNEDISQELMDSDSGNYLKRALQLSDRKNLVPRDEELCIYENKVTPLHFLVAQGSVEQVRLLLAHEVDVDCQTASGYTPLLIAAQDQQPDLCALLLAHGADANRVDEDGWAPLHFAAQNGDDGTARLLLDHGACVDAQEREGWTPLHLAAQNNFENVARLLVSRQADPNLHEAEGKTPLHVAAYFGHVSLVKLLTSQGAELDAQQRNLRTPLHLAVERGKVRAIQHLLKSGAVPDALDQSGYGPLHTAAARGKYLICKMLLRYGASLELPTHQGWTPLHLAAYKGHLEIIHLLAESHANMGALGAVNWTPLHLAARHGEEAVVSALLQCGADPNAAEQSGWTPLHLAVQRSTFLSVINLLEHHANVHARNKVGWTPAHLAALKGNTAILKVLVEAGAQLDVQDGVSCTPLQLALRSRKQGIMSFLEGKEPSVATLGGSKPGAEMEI
Sequence of HIPK2 (human) (Q9H2X6 whole entry, looked up): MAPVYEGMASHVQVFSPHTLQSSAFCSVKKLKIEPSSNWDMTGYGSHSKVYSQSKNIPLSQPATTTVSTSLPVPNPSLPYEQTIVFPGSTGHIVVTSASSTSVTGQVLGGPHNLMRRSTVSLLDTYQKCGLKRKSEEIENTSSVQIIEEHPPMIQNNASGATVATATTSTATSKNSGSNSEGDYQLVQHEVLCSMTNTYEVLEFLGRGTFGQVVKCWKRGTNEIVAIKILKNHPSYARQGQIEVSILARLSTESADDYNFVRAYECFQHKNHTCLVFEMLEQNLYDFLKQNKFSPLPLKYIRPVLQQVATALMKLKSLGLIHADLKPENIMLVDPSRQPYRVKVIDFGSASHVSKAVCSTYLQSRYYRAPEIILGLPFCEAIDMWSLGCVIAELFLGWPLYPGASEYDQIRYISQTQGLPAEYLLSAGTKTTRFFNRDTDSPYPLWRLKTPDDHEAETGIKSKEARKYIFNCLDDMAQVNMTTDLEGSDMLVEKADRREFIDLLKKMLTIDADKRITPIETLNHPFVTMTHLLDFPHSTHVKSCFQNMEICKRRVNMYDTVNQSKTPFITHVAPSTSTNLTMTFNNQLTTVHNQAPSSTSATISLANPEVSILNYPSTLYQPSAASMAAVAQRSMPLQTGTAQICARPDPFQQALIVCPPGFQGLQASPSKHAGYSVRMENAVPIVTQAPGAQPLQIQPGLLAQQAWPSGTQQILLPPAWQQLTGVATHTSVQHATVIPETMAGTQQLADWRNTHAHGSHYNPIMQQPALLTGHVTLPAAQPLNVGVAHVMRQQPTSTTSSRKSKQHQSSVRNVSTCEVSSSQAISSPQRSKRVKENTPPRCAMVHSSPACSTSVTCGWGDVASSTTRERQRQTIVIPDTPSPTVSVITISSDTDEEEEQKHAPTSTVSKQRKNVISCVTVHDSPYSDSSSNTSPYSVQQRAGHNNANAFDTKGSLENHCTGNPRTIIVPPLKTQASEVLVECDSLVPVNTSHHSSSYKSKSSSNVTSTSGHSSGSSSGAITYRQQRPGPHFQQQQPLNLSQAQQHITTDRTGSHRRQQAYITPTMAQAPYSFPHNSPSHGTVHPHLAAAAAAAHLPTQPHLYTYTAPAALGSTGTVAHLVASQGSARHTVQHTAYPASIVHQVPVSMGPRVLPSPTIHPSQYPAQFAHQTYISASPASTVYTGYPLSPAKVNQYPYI

COCCNCCCn1c(C(=O)CF)c(-c2ccc(C)cc2)c2c(N)ncnc21
kinase still bound, per cent of control (ACVRL1 (human)): 100% | kinase still bound, per cent of control (PAK3 (human)): 100% | kinase still bound, per cent of control (ANKK1 (human)): 100% | kinase still bound, per cent of control (DYRK2 (human)): 89% | kinase still bound, per cent of control [1]: 65% | kinase still bound, per cent of control (HIPK2 (human)): 94% | kinase still bound, per cent of control (MAP3K1 (human)): 100% | kinase still bound, per cent of control (RPS6KA4 KD1 (human)): 100% | kinase still bound, per cent of control (CSNK1G1 (human)): 91% | kinase still bound, per cent of control (PIP5K1C (human)): 100% | kinase still bound, per cent of control (IKBKE (human)): 100% | kinase still bound, per cent of control (MAPK14 (human)): 96% | kinase still bound, per cent of control (PRKD1 (human)): 100% | kinase still bound, per cent of control (RPS6KA3 KD1 (human)): 97% | kinase still bound, per cent of control (LATS2 (human)): 100% | kinase still bound, per cent of control (LIMK2 (human)): 100% | kinase still bound, per cent of control (TEK (human)): 100% | kinase still bound, per cent of control (MAPK10 (human)): 100% | kinase still bound, per cent of control (GRK4 (human)): 85% | kinase still bound, per cent of control (MAP3K12 (human)): 94% | kinase still bound, per cent of control [2]: 100% | kinase still bound, per cent of control (MKNK1 (human)): 100% | kinase still bound, per cent of control (LYN (human)): 97% | kinase still bound, per cent of control (CSF1R (human)): 89% | kinase still bound, per cent of control (NEK3 (human)): 70% | kinase still bound, per cent of control (SRPK1 (human)): 100% | kinase still bound, per cent of control (CAMKK1 (human)): 100% | kinase still bound, per cent of control (MAPKAPK2 (human)): 97% | kinase still bound, per cent of control (CAMK1D (human)): 100% | kinase still bound, per cent of control (PTK6 (human)): 90% | kinase still bound, per cent of control [3]: 100% | kinase still bound, per cent of control (EPHB6 (human)): 100% | kinase still bound, per cent of control [4]: 84% | kinase still bound, per cent of control (MAP2K7 (human)): 78% | kinase still bound, per cent of control [5]: 100% | kinase still bound, per cent of control (TTK (human)): 95% | kinase still bound, per cent of control (MARK4 (human)): 74% | kinase still bound, per cent of control (BMP2K (human)): 94% | kinase still bound, per cent of control (STK24 (human)): 78% | kinase still bound, per cent of control (PAK2 (human)): 85% | kinase still bound, per cent of control (YSK4 (human)): 100% | kinase still bound, per cent of control [6]: 100% | kinase still bound, per cent of control (PRKD2 (human)): 100%
